From the supplement of paper PMC10307832

How the values were obtained:
Assay in all cases: relative viability (nuclei count vs DMSO), 5 days (fraction); higher = more cells survive
Ponatinib + Alpelisib = compound: Cc1ccc(C(=O)Nc2ccc(CN3CCN(C)CC3)c(C(F)(F)F)c2)cc1C#Cc1cnc2cccnn12 [Ponatinib] + Cc1nc(NC(=O)N2CCC[C@H]2C(N)=O)sc1-c1ccnc(C(C)(C)C(F)(F)F)c1 [Alpelisib] (partner 2 µM)
Method in brief: (§1)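 A single step with final 0.05% Triton X-100, 1% formaldehyde and 1 ug/ml Hoechst fixed the cells and stained nuclei 5 days after treatment. Lung cancer cell lines in 1536-well plates had been treated by pin tool the day after seeding with one drug alone or a fixed anchor-drug dose plus five library-drug doses (not always all listed) in √10 steps, and nuclei were counted on 4× images. Relative viability is the ratio of nuclei in treated wells to nuclei in vehicle wells, taken as the median of duplicate plates.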

Ponatinib + Dasatinib = compound: Cc1ccc(C(=O)Nc2ccc(CN3CCN(C)CC3)c(C(F)(F)F)c2)cc1C#Cc1cnc2cccnn12 [Ponatinib] + Cc1nc(Nc2ncc(C(=O)Nc3c(C)cccc3Cl)s2)cc(N2CCN(CCO)CC2)n1 [Dasatinib] (partner 0.075 µM)
Method in brief: as §1

Pazopanib + Foretinib = compound: Cc1ccc(Nc2nccc(N(C)c3ccc4c(C)n(C)nc4c3)n2)cc1S(N)(=O)=O [Pazopanib] + COc1cc2c(Oc3ccc(NC(=O)C4(C(=O)Nc5ccc(F)cc5)CC4)cc3F)ccnc2cc1OCCCN1CCOCC1 [Foretinib] (partner 0.25 µM)
Method in brief: as §1

Pazopanib + Crizotinib = compound: Cc1ccc(Nc2nccc(N(C)c3ccc4c(C)n(C)nc4c3)n2)cc1S(N)(=O)=O [Pazopanib] + C[C@@H](Oc1cc(-c2cnn(C3CCNCC3)c2)cnc1N)c1c(Cl)ccc(F)c1Cl [Crizotinib] (partner 1 µM)
Method in brief: as §1

Row | Cell Line | relative viability (Ponatinib + Alpelisib; first compound 0.002 µM) | relative viability (Ponatinib + Alpelisib; first compound 0.006325 µM) | relative viability (Ponatinib + Alpelisib; first compound 0.06325 µM) | relative viability (Ponatinib + Alpelisib; first compound 0.2 µM) | relative viability (Ponatinib + Dasatinib; first compound 0.002 µM) | relative viability (Ponatinib + Dasatinib; first compound 0.006325 µM) | relative viability (Ponatinib + Dasatinib; first compound 0.06325 µM) | relative viability (Ponatinib + Dasatinib; first compound 0.2 µM) | relative viability (Pazopanib + Foretinib; first compound 0.01 µM) | relative viability (Pazopanib + Foretinib; first compound 0.03162 µM) | relative viability (Pazopanib + Foretinib; first compound 0.1 µM) | relative viability (Pazopanib + Foretinib; first compound 0.3162 µM) | relative viability (Pazopanib + Foretinib; first compound 1 µM) | relative viability (Pazopanib + Crizotinib; first compound 0.01 µM) | relative viability (Pazopanib + Crizotinib; first compound 0.03162 µM) | relative viability (Pazopanib + Crizotinib; first compound 0.1 µM) | relative viability (Pazopanib + Crizotinib; first compound 0.3162 µM) | relative viability (Pazopanib + Crizotinib; first compound 1 µM)
1 | HCC-366 | 0.375 | 0.43 | 0.69 | 0.376 | 0.563 | 0.621 | 0.644 | 0.54 | 1.01 | 0.956 | 0.974 | 0.969 | 0.938 | 0.508 | 0.485 | 0.478 | 0.528 | 0.63
2 | HCC-827 | 1.01 | 0.987 | 1.01 | 1.01 | 0.241 | 0.344 | 0.296 | 0.248 | 1.07 | 0.992 | 1.05 | 1.06 | 0.969 | 0.999 | 0.976 | 0.906 | 0.902 | 0.922
3 | HOP-62 | 0.782 | 0.871 | 0.652 | 0.718 | 0.6 | 0.607 | 0.819 | 0.6 | 1.05 | 1.04 | 1.2 | 1.08 | 0.976 | 0.974 | 0.68 |  | 0.946 | 0.948
4 | IA-LM | 0.756 | 0.657 | 0.828 | 0.722 |  |  |  |  | 1.17 | 1.07 | 1.13 | 1.04 | 1.02 | 0.93 |  | 0.938 | 0.843 | 0.659
5 | LC-2-ad | 0.832 | 0.792 | 0.648 | 0.552 | 0.286 | 0.298 | 0.313 | 0.256 | 0.888 | 0.927 | 1.05 | 0.967 | 1.04 | 0.483 | 0.462 | 0.467 | 0.423 | 0.467
6 | LCLC-97TM1 |  | 0.227 |  | 0.314 | 0.983 | 0.94 | 0.906 | 0.863 | 0.908 | 0.976 | 1.03 | 0.909 | 0.905 |  | 0.309 | 0.277 | 0.297 | 0.427
7 | LCLC-103H | 0.89 | 0.969 | 1.07 | 1.03 | 0.386 | 0.573 | 0.532 | 0.394 | 0.651 | 0.897 | 0.734 | 0.819 | 0.894 | 0.968 | 1.03 | 1.14 | 1.06 | 1.24
8 | LK-2 | 1.12 | 1.05 | 1.17 | 0.668 |  | 0.268 | 0.196 | 0.158 |  | 1.2 | 1.07 | 1.11 | 1.01 | 0.224 | 0.239 | 0.213 | 0.21 | 0.235
9 | LOU-NH91 | 0.703 | 0.792 | 0.822 | 0.713 | 0.541 | 0.581 | 0.548 | 0.525 | 0.898 | 0.92 | 0.945 | 0.967 | 0.948 | 0.726 | 0.731 | 0.711 | 0.757 | 0.761
